From publication PMC11836371, “Virtual fragment screening for DNA repair inhibitors in vast chemical space” (Nature Communications, 2025)
Where “and” joins values, the source holds several entries; their conditions need not be identical. Equal values may be shown once.

How the values were obtained:
Assay type in all cases: cell-based
[1] = test system: A2780 cells; experiment: Cancer cell viability assay (resazurin), A2780; parameters: key to cell viability, cytotoxicity curve (Figure3H): % viability relative to untreated control wells
Procedure: (§1) Three different cancer cell lines A2780 (ovarian cancer, ECACC 93112519), A549 (lung cancer, ATCC 60150896) and HCT116 (colon cancer, ATCC CCL-247), and one immortalized fibroblast cell line (BJhTERT) as control, were seeded in black/clear 384-well plates (Corning #3764), 50 µL/well, containing 11 concentrations, nano-dispensed, dose-response curves of the test compounds. A2780, HCT116, and HEK293T cell lines were authenticated with STR profiling, frozen down, and these stocks were used in experiments. The A2780 cells were cultured in RPMI 1640, the A549 and BJhTERT cells in DMEM, and the HCT116 cells in McCoys 5 A medium. All media were supplemented with 10% FBS and 1% P/S. All cell culture media, additives, and reagents were purchased from Thermo Fisher Scientific. The cell plates were incubated 72 hours in a humidified incubator at 37 °C with 5% CO2, after which resazurin (Sigma-Aldrich), 10 µL/well, was added to a final concentration of 10 µg/mL. The plates were incubated for 6 hours with resazurin followed by fluorescence readings in a Sense plate reader (Hidex), resorufin protocol (ex 544 nm/em 595 nm). The cell viability was calculated compared to untreated control wells and the EC50 values were determined in XLfit (IDBS).

[2] = test system: A549 cells; experiment: Cancer cell viability assay (resazurin), A549; details: two independent experiments
Procedure: as §1

[3] = test system: HCT116 cells; experiment: Cancer cell viability assay (resazurin), HCT116; details: two independent experiments
Procedure: as §1

[4] = Cell viability assay (resazurin), BJhTERT non-transformed control; parameters: key to cell viability, cytotoxicity curve (Figure3H): % viability relative to untreated control wells; details: human, BJhTERT
Procedure: (§2) A2780, HCT116, and HEK293T cell lines were authenticated with STR profiling, frozen down, and these stocks were used in experiments. […] All media were supplemented with 10% FBS and 1% P/S. All cell culture media, additives, and reagents were purchased from Thermo Fisher Scientific. The cell plates were incubated 72 hours in a humidified incubator at 37 °C with 5% CO2, after which resazurin (Sigma-Aldrich), 10 µL/well, was added to a final concentration of 10 µg/mL. […] The cell viability was calculated compared to untreated control wells and the EC50 values were determined in XLfit (IDBS).

[5] = test system: BJhTERT cells; experiment: as above; parameters: key to cell viability, cytotoxicity curve (Figure3H): % viability relative to untreated control wells
Procedure: as §2

SMILES: Nc1nn(-c2ccc(CC(=O)Nc3noc4c3CCCC4)cc2)c2ccccc12 [compound 11]
- percentage cell viability ([1]; A2780, 100 μM, two independent experiments, 100 µM): 1.69%
- cell viability, cytotoxicity curve (Figure3H) ([1]; A2780, Log conc. (M) 1.69824e-9): 91.8 and 117.36
- cell viability, cytotoxicity curve (Figure3H) ([1]; A2780, Log conc. (M) 5.12861e-9): 99.13 and 112.7
- cell viability, cytotoxicity curve (Figure3H) ([1]; A2780, Log conc. (M) 1.51356e-8): 105.26 and 125.33
- cell viability, cytotoxicity curve (Figure3H) ([1]; A2780, Log conc. (M) 4.57088e-8): 93.79 and 108.52
- cell viability, cytotoxicity curve (Figure3H) ([1]; A2780, Log conc. (M) 1.38038e-7): 82.27 and 122.21
- cell viability, cytotoxicity curve (Figure3H) ([1]; A2780, Log conc. (M) 4.0738e-7): 73.45 and 78.71
- cell viability, cytotoxicity curve (Figure3H) ([1]; A2780, Log conc. (M) 1.23027e-6): 82.77 and 87.65
- cell viability, cytotoxicity curve (Figure3H) ([1]; A2780, Log conc. (M) 3.71535e-6): 59.52 and 70.03
- cell viability, cytotoxicity curve (Figure3H) ([1]; A2780, Log conc. (M) 1.12202e-5): 22.19 and 22.95
- cell viability, cytotoxicity curve (Figure3H) ([1]; A2780, Log conc. (M) 3.31131e-5): 6.15 and 7.44
- cell viability, cytotoxicity curve (Figure3H) ([1]; A2780, Log conc. (M) 0.0001): 1.69
- viability at 100 µM ([1]; Homo sapiens, A2780, A2780, 100 μM, two independent experiments, read-out: percentage cell viability): 1.43%
- EC50 ([1]; Homo sapiens, A2780 cancer cells, 72 h, read-out: EC50 (loss of viability)): 5.4 µM
- percentage cell viability ([2]; A549, 100 μM, 100 µM): 21.3%
- viability at 100 µM ([2]; Homo sapiens, A549, A549, 100 μM, read-out: percentage cell viability): 17.2%
- percentage cell viability ([3]; HCT116, 100 μM, 100 µM): 20.29%
- viability at 100 µM ([3]; Homo sapiens, HCT-116, HCT116, 100 μM, read-out: percentage cell viability): 20%
- viability at 72 h, 100 µM ([4]; 100 μM, two independent experiments, read-out: percentage cell viability): 38.2%
- viability at 72 h, 5.12861e-09 M ([4]; Log conc. (M) 5.12861e-9, read-out: cell viability, cytotoxicity curve (Figure3H)): 94.3%
- viability at 72 h, 1.51356e-08 M ([4]; Log conc. (M) 1.51356e-8, read-out: cell viability, cytotoxicity curve (Figure3H)): 81.4%
- viability at 72 h, 4.57088e-08 M ([4]; Log conc. (M) 4.57088e-8, read-out: cell viability, cytotoxicity curve (Figure3H)): 92%
- viability at 72 h, 1.38038e-07 M ([4]; Log conc. (M) 1.38038e-7, read-out: cell viability, cytotoxicity curve (Figure3H)): 101%
- viability at 72 h, 4.0738e-07 M ([4]; Log conc. (M) 4.0738e-7, read-out: cell viability, cytotoxicity curve (Figure3H)): 79.8%
- viability at 72 h, 1.23027e-06 M ([4]; Log conc. (M) 1.23027e-6, read-out: cell viability, cytotoxicity curve (Figure3H)): 87.1%
- viability at 72 h, 3.71535e-06 M ([4]; Log conc. (M) 3.71535e-6, read-out: cell viability, cytotoxicity curve (Figure3H)): 84%
- viability at 72 h, 1.12202e-05 M ([4]; Log conc. (M) 1.12202e-5, read-out: cell viability, cytotoxicity curve (Figure3H)): 89.3%
- viability at 72 h, 3.31131e-05 M ([4]; Log conc. (M) 3.31131e-5, read-out: cell viability, cytotoxicity curve (Figure3H)): 71%
- viability at 72 h, 0.0001 M ([4]; Log conc. (M) 0.0001, read-out: cell viability, cytotoxicity curve (Figure3H)): 38.2%
- percentage cell viability ([5]; BJhTERT, 100 μM, two independent experiments): 40.28%
- cell viability, cytotoxicity curve (Figure3H) ([5]; BJhTERT, Log conc. (M) 1.69824e-9): 80.73 and 114.45
- cell viability, cytotoxicity curve (Figure3H) ([5]; BJhTERT, Log conc. (M) 5.12861e-9): 111.95
- cell viability, cytotoxicity curve (Figure3H) ([5]; BJhTERT, Log conc. (M) 1.51356e-8): 93.48
- cell viability, cytotoxicity curve (Figure3H) ([5]; BJhTERT, Log conc. (M) 4.57088e-8): 99.27
- cell viability, cytotoxicity curve (Figure3H) ([5]; BJhTERT, Log conc. (M) 1.38038e-7): 112.5
- cell viability, cytotoxicity curve (Figure3H) ([5]; BJhTERT, Log conc. (M) 4.0738e-7): 95.56
- cell viability, cytotoxicity curve (Figure3H) ([5]; BJhTERT, Log conc. (M) 1.23027e-6): 91.5
- cell viability, cytotoxicity curve (Figure3H) ([5]; BJhTERT, Log conc. (M) 3.71535e-6): 96.04
- cell viability, cytotoxicity curve (Figure3H) ([5]; BJhTERT, Log conc. (M) 1.12202e-5): 108.1
- cell viability, cytotoxicity curve (Figure3H) ([5]; BJhTERT, Log conc. (M) 3.31131e-5): 71.45
- cell viability, cytotoxicity curve (Figure3H) ([5]; BJhTERT, Log conc. (M) 0.0001): 40.28
- EC50 ([5]; non-transformed cells (BJhTERT), 72 h, read-out: EC50 (loss of viability)): > 70 µM
